Test system: MC38 colorectal tumor
Assay: syngeneic MC38 colorectal tumor model in C57BL/6 mice
Type: in vivo
Conditions: FIG. 1 experiment
Description: Mice with established subcutaneous MC38 tumors of approximately 100-200 mm^3 were treated with single-dose carboplatin at 80 mg/kg by intraperitoneal (IP) injection plus paclitaxel at 10 mg/kg injected intravenously (IV), and anti-gp120 antibody or anti-PD-L1 (clone 25A1 mIgG2a.DANA) at 10 mg/kg dosed 3 times a week for 3 weeks. N=10 mice/group.
Mice with established subcutaneous MC38 tumors of approximately 100-200 mm^3 were treated with a single dose of either saline or dexamethasone at 4 mg/kg IV and 12 hours later, treated with either control anti-gp120 antibody or anti-PD-L1 (clone 25A1.mIgG2a.DANA) at 10 mg/kg IP 3 times a week for 3 weeks. N=10 mice/group.
Mice with established subcutaneous MC38 tumors of approximately 300 mm^3 were treated with anti-gp120 control antibody or anti-PD-L1 antibody (clone YW243.55.570 mIgG2a.DANA) administered by IP injection at 10 mg/kg 3 times a week for 3 weeks, plus saline or carboplatin at 75 mg/kg IP weekly for 3 weeks plus ABRAXANE® at 15 mg/kg iv weekly for 3 weeks, as indicated. N=8 mice/group.
MC38 colorectal tumor cell lines were maintained at Genentech. 7-10 week old C57BL/6 female mice (Charles River Laboratories; Hollister, Calif.) were inoculated subcutaneously in the right unilateral flank with 0.1 million MC38 cells. […]

In the case of paclitaxel+carboplatin, the “mice with partial response (in words)” value (N=10 mice/group) was “no mice” and the “time to progression (TTP), 5× the initial tumor volume” value (tumors approximately 100-200 mm^3 at start, anti-PD-L1 clone 25A1) was 15.5 days.

Reference: patent US10570213B2, “Methods of treating cancers using PD-1 axis binding antagonists and taxanes” (Genentech, Inc., priority 2013, dated 2020)
